These results are taken from paper PMC3805374 (Life sciences, 2013).

The target in one assay is FLAG-mouse DOPR (Mus musculus, UniProt P32300). The assay is classed as biochemical. The settings on record: CHO-FLAG-DOPR/HA-D1R cells pretreated with 10 μM for 30 min, n=3.
Another assay concerns the target endogenous DOPR (Mus musculus, UniProt P32300). Kind of assay: DPDPE-stimulated [35S]GTPγS binding to membranes of NG 108-15-HA-D1R cells. The assay is classed as biochemical, mouse neuroblastoma × rat glioma hybrid. The conditions noted are these: NG 108-15-HA-D1R cells pretreated with 10 μM for 30 min, n=3.
In the next assay the test system is ERK1/2 phosphorylation. Put plainly: Immunoblot analysis of phosphorylated ERK1/2 in CHO-FLAG-DOPR/HA-D1R cells. The assay is classed as cell-based, Chinese hamster. The conditions noted are these: 10 μM for 30 min. (In general: In western blotting, separated proteins are transferred to a membrane and probed.)
In assay [1] the target is T1, FLAG-mDOPR (Mus musculus, UniProt P32300). The assay is classed as cell-based. The conditions noted are these: 10 μM pretreatment for 30 min or 24 h.
Assay [2] deals with T1, FLAG-mDOPR. Put plainly: Phosphorylation of the DOPR. The conditions noted are these: CHO-FLAG-DOPR/HA-D1R cells; 10 μM for 30 min. It is filed as cell-based.
The next assay concerns the target D1R (Rattus norvegicus, UniProt P18901). Put plainly: cAMP level in NG108-15/HA-D1R and CHO-FLAG-DOPR/HA-D1R cells. The assay is classed as cell-based. The settings on record: NG108-15/HA-D1R cells and CHO-FLAG-DOPR/HA-D1R cells; data not shown. For orientation: Changes in cAMP serve as a functional read-out for many G protein-coupled receptors.

T1 sequence (P32300 whole entry): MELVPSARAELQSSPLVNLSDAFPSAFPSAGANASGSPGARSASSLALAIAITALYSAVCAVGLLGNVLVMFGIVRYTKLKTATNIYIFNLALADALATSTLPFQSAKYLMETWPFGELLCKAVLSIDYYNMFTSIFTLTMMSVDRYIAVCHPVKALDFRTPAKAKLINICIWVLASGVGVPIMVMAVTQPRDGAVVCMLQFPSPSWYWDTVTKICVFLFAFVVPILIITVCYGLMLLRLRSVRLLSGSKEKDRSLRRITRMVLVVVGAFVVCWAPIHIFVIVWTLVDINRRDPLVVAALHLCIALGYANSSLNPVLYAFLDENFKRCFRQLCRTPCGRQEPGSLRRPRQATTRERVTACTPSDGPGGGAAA
endogenous DOPR, sequence (P32300 whole entry): as above
FLAG-mouse DOPR, sequence (P32300 whole entry): as above
D1R, sequence (P18901 whole entry): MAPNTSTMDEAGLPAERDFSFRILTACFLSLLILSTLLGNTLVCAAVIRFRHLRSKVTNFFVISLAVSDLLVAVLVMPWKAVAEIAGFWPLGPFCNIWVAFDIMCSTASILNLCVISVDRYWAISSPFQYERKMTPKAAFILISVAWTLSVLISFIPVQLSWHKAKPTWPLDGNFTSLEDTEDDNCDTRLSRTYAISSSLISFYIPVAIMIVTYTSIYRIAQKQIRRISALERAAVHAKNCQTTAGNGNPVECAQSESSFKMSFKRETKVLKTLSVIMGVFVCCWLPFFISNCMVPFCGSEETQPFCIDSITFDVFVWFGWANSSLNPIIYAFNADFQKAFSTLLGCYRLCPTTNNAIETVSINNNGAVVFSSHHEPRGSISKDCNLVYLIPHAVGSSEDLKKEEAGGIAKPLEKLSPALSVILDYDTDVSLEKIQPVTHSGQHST

In the case of `Br.C=CCN1CCc2c(cc(O)c(O)c2Cl)C(c2ccccc2)C1` (racemic) [SKF-82958, (±)-chloro-APB HBr], the “Basal [35S]GTPγS binding after pretreatment” value on FLAG-mouse DOPR was 42.6 ± 7.0 fmol/mg protein; on endogenous DOPR, 14.5 ± 1.9 fmol/mg protein. Moreover, the “ERK1/2 phosphorylation compared with the control” value in the assay on ERK1/2 phosphorylation is recorded as “produced a marked increase in ERK1/2 phosphorylation”. Moreover, at FLAG-mDOPR [1], the “Effect on total or cell surface DOPRs” value is “did not affect total or cell surface DOPRs”. Further, the “Phosphorylation of the DOPR” value at FLAG-mDOPR [2] is “did not induce phosphorylation of the DOPR”. In addition, the cAMP level entry on D1R is given as “dose-dependently increased cAMP level”.
